From ChEMBL document CHEMBL1201862, “PubChem BioAssay data set” (2004)
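Each compound was tested at five concentrations against cells in 96-well plates for 48 hours. GI50 is the concentration that inhibits growth by half.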 Activity calls are given as the source filed them. Rule as the data show it: active = GI50 up to about 1.1 µM and inactive = higher.

Experiments:
Experiment in all cases: NCI anticancer screen, dose series, 48 h
SNB-78 = test system: SNB-78
DLD-1 = test system: DLD-1
KM-20L2 = test system: KM-20L2
M19-MEL = test system: M19-MEL
DMS-114 = test system: DMS-114
DMS-273 = test system: DMS-273
BT-549 = test system: BT-549
HOP-18 = test system: HOP-18
RXF 631 = test system: RXF 631

Structure (SMILES): CCO/C=C1\N=C(C(Cl)c2ccccc2)OC1=O (centres undefined)
- GI50 (SNB-78): > 100 µM (inactive)
- GI50 (DLD-1): > 100 µM (inactive)
- GI50 (KM-20L2): > 100 µM (inactive)
- GI50 (M19-MEL): > 100 µM (inactive)
- GI50 (DMS-114): 61.5 µM (inactive)
- GI50 (DMS-273): > 100 µM (inactive)

Structure (SMILES): O=c1[nH][nH]c(=O)n1Cc1cccc(Cn2c(=O)[nH][nH]c2=O)c1
- GI50 (BT-549): > 100 µM (inactive)

Structure (SMILES): CNc1cc2oc(=O)cc(C)c2cc1C
- GI50 (BT-549): 15.4 µM (inactive)

Structure (SMILES): Cc1cc(=O)c2c(O)cc3c(c2o1)CC=C(COC1OC(COC2OC(CO)C(O)C(O)C2O)C(O)C(O)C1O)CO3 (centres undefined)
- GI50 (SNB-78): > 100 µM (inactive)
- GI50 (DLD-1): > 100 µM (inactive)
- GI50 (KM-20L2): > 100 µM (inactive)
- GI50 (M19-MEL): > 100 µM (inactive)
- GI50 (DMS-114): > 100 µM (inactive)
- GI50 (DMS-273): > 100 µM (inactive)

Structure (SMILES): CN1CCN([C@H]2C[C@H]3[C@@H]4CC=C5C[C@@H](N6CCCC6)CC[C@]5(C)[C@H]4CC[C@]3(C)[C@H]2O)CC1
- GI50 (BT-549): 95.5 µM (inactive)

Structure (SMILES): Nc1ccc(C(=O)NN2C(=O)C(Cl)C2c2ccccc2Cl)cc1 (centres undefined)
- GI50 (SNB-78): 15.7 µM (inactive)
- GI50 (DLD-1): 10.8 µM (inactive)
- GI50 (KM-20L2): 15.8 µM (inactive)
- GI50 (M19-MEL): 7.94 µM (inactive)
- GI50 (DMS-114): 5.48 µM (inactive)
- GI50 (DMS-273): 3.2 µM (inactive)
- GI50 (HOP-18): 3.1 µM (inactive)

Structure (SMILES): CN1C2C=C(c3ccccc3)CC1CC2 (centres undefined)
- GI50 (DLD-1): > 100 µM (inactive)
- GI50 (KM-20L2): > 100 µM (inactive)
- GI50 (M19-MEL): > 100 µM (inactive)
- GI50 (HOP-18): > 100 µM (inactive)

Structure (SMILES): NNC(=O)C(O)C(O)C(O)CO (centres undefined)
- GI50 (BT-549): > 100 µM (inactive)

Structure (SMILES): CC(C)=CCc1cc(/C=C/C(=O)O)cc(CC=C(C)C)c1O [ARTEPILLIN]
- GI50 (BT-549): > 100 µM (inactive)

Structure (SMILES): CC1(C)OC(=S)N(c2ccccc2)C12C=Cc1cc3ccccc3nc1S2 (centres undefined)
- GI50 (DLD-1): 40.6 µM (inactive)
- GI50 (KM-20L2): > 100 µM (inactive)
- GI50 (M19-MEL): 93.8 µM (inactive)
- GI50 (DMS-114): > 100 µM (inactive)
- GI50 (DMS-273): 97.3 µM (inactive)

Structure (SMILES): O=C1N[C@H]2C(=O)c3c(Cl)sc(Cl)c3[C@H]2O1
- GI50 (BT-549): 23.3 µM (inactive)

Structure (SMILES): COc1cc2c(oc(=O)c3c4occc4cc(OC)c23)c2cccc(O)c12
- GI50 (SNB-78): > 100 µM (inactive)
- GI50 (DLD-1): > 100 µM (inactive)
- GI50 (KM-20L2): > 100 µM (inactive)
- GI50 (M19-MEL): > 100 µM (inactive)
- GI50 (DMS-114): > 100 µM (inactive)
- GI50 (DMS-273): > 100 µM (inactive)
- GI50 (HOP-18): > 100 µM (inactive)

Structure (SMILES): c1cnn(C23C4C5C6C4C2C6C53)c1 (centres undefined)
- GI50 (BT-549): 71.6 µM (inactive)

Structure (SMILES): Cc1ccc(-c2nnc(-c3nn(-c4ccccc4)c4nc5ccccc5nc34)o2)cc1
- GI50 (SNB-78): 19.8 µM (inactive)
- GI50 (DLD-1): 16.9 µM (inactive)
- GI50 (KM-20L2): 42.4 µM (inactive)
- GI50 (M19-MEL): 22.1 µM (inactive)
- GI50 (DMS-114): 15.8 µM (inactive)
- GI50 (DMS-273): 20.1 µM (inactive)
- GI50 (HOP-18): 27.9 µM (inactive)

Structure (SMILES): COc1cc(OC)cc(-n2c(N)c(-c3nc4ccccc4s3)c3ccc([N+](=O)[O-])cc3c2=O)c1
- GI50 (BT-549): > 100 µM (inactive)

Structure (SMILES): O=C(O)c1cc2ccccc2c(/N=N/c2ccccc2)c1O
- GI50 (BT-549): 20.8 µM (inactive)

Structure (SMILES): CC1(C)C(=NN=C(N)N)C(C)(C)C1=NN=C(N)N
- GI50 (SNB-78): > 100 µM (inactive)
- GI50 (DLD-1): > 100 µM (inactive)
- GI50 (KM-20L2): > 100 µM (inactive)
- GI50 (M19-MEL): > 100 µM (inactive)
- GI50 (RXF 631): > 100 µM (inactive)
- GI50 (DMS-114): > 100 µM (inactive)
- GI50 (DMS-273): > 100 µM (inactive)

Structure (SMILES): Cn1cnc([N+](=O)[O-])c1SC1=NCCS1
- GI50 (SNB-78): 42.9 µM (inactive)
- GI50 (DLD-1): 31.4 µM (inactive)
- GI50 (M19-MEL): 49.4 µM (inactive)
- GI50 (DMS-273): 98.6 µM (inactive)
- GI50 (HOP-18): 4.24 µM (inactive)

Structure (SMILES): CCOC(=O)c1c(N2CCOCC2)[nH]c(=O)c(C(c2ccc(Cl)c([N+](=O)[O-])c2)c2c(O)c(C(=O)OCC)c(N3CCOCC3)[nH]c2=O)c1O
- GI50 (BT-549): 24.4 µM (inactive)

Structure (SMILES): CCCCOC(=O)C(NC(C(=O)OCCCC)c1cc(C(C)(C)C)c(O)c(C(C)(C)C)c1)c1cc(C(C)(C)C)c(O)c(C(C)(C)C)c1 (centres undefined)
- GI50 (BT-549): > 100 µM (inactive)

Structure (SMILES): N#Cc1cn(-c2c3ccccc3nc3ccccc23)c(=O)[nH]c1=O
- GI50 (SNB-78): 13.5 µM (inactive)
- GI50 (DLD-1): 15.5 µM (inactive)
- GI50 (KM-20L2): 7.38 µM (inactive)
- GI50 (M19-MEL): 6.46 µM (inactive)
- GI50 (DMS-114): 8 µM (inactive)

Structure (SMILES): CC#C[P+](c1ccccc1)(c1ccccc1)c1ccccc1
- GI50 (SNB-78): 4.33 µM (inactive)
- GI50 (DLD-1): 2.34 µM (inactive)
- GI50 (KM-20L2): 6.71 µM (inactive)
- GI50 (M19-MEL): 2.9 µM (inactive)
- GI50 (DMS-114): 2.08 µM (inactive)
- GI50 (DMS-273): 2.11 µM (inactive)
- GI50 (HOP-18): 11.7 µM (inactive)

Structure (SMILES): CCOC(=O)CCC(C(=O)OCC)n1nnc2ccc(Nc3c(C)[n+]([O-])c4cc(Cl)ccc4[n+]3[O-])cc21 (centres undefined)
- GI50 (BT-549): 26.5 µM (inactive)

Structure (SMILES): CN(N=O)C(=O)NNC(=O)N(C)N=O
- GI50 (BT-549): 91.8 µM (inactive)

Structure (SMILES): c1ccc(COc2ncccc2C2SCCCS2)cc1
- GI50 (BT-549): > 100 µM (inactive)

Structure (SMILES): COc1ccc2c(=O)c3ccoc3n(CC=C(C)C)c2c1 [ACROPHYLLINE]
- GI50 (BT-549): 35.4 µM (inactive)

Structure (SMILES): COc1ccc(-c2cc(=O)c3c(OC)c(OC)c(OC)cc3o2)cc1
- GI50 (BT-549): 31.7 µM (inactive)

Structure (SMILES): C(=C\c1cc(-c2ccc3ccccc3n2)nc2ccc3ccccc3c12)/c1ccc2ccccc2n1
- GI50 (BT-549): > 100 µM (inactive)

Structure (SMILES): CN1/C(=C/C=C/C=C/C=C2C(=O)c3ccccc3C2=O)C(C)(C)c2ccccc21
- GI50 (BT-549): 24 µM (inactive)
